Reference: paper PMC7731314, “Tropinone-Derived Alkaloids as Potent Anticancer Agents: Synthesis, Tyrosinase Inhibition, Mechanism of Action, DFT Calculation, and Molecular Docking Studies” (International Journal of Molecular Sciences, 2020)
Like-named read-outs stand apart in the source and are kept apart here.

Experiments:
[1] = system: RPMI 8226 cells; assay: Annexin V-FITC/PI cell death by flow cytometry, RPMI 8226; assay type: cell-based, human; details: for IC50: Homo sapiens, read-out: IC50 for apoptosis (concentration inducing apoptosis in 50% of cells)
Protocol: The quantitative analysis of compound 3a-induced cell death was performed using an Annexin V-fluorescein isothiocyanate (FITC)/propidium iodide (PI) apoptosis kit (BD Biosciences, BD Pharmingen™, San Jose, CA, USA) as previously described. Briefly, the RPMI 8226 or A549 cells growing on the 6-well plates in the culture medium with 2% FBS were subjected to increasing concentrations of compound 3a (2.5, 5, 10, 20, or 40 μM) for 24 and 48 h. After the treatment, the cells were harvested, centrifuged at 1000 rpm and room temperature (RT) for 5 min, washed twice with PBS, and stained with […] of AnnexinV-FITC and […] of PI. After incubation for 15 min in the dark at room temperature, the cells were immediately analyzed using FACS Calibur. The intensity of fluorescence of AnnexinV-FITC and PI stained cells was determined by acquisition of at least 10,000 events per sample within the rate >60 events/s. The FACS data were analyzed using Cell Quest Pro Version 6.0. for the Macintosh operating system. The data were analyzed to determine the percentage of viable, early apoptotic, late apoptotic, and necrotic cells.

[2] = system: human breast adenocarcinoma (MDA-MB-231) cell line; assay: MTT cell proliferation assay, MDA-MB-231; assay type: cell-based; details: MDA-MB-231, antiproliferative, MTT, 72 h, read-out: IC50 ± SD MDA-MB-231
Text: (§1) The influence of the tested compounds on the proliferation of melanoma B16F10 and breast MDA-MB-231 cells was estimated with the MTT assay as described previously. The cells counted using an automated cell counter (Countess® II FL, Invitrogen by Thermo Fisher Scientific Inc., Waltham, MA USA) and plated in 96-well plates (Nunc Edge 2F, Thermo Fisher Scientific Inc.) at a density of 0.1 × 10^4 and 0.2 × 10^4 per well, respectively. A total of twenty-four hours later, drugs were applied with final concentration: 5, 0.5, 0.05, and 0.005 μg/mL, and after an additional seventy-two hours MTT staining was performed as follows: twenty microliters of 5 mg/mL MTT solution and was added to each well of 96-well plate incubated for 2 h. Subsequently, the medium was removed and crystals of formazan were solubilized in pure isopropanol. Absorbance readout was conducted immediately using plate reader Multiskan Spectrum at 570 nm (Thermo Electron Corporation, Waltham, MA, USA). The background optical density was measured in the wells filled with culture medium, without the cells. The biological evaluation was performed as three independent experiments. The IC50 values were calculated using ED50plus v 1.0 freeware software and the mean response and standard deviation were calculated using Excel software. All of the chemicals were obtained from Sigma-Aldrich.

[3] = system: human lung carcinoma (A549) cell line; assay: MTT cell proliferation assay, A549; assay type: cell-based; details: antiproliferative, 96 h, read-out: IC50 ± SD A549
Protocol: The influence of the tested compounds on the proliferation of RPMI 8226 and A549 cells was estimated with the MTT assay as described previously. Briefly, 1 × 10^4 cells/mL (RPMI 8226) or 0.2 × 10^4 (A549) cells per well were seeded into 96-well plates and cultured (in growth medium containing 10% FBS) with different concentrations of each compound ranging from 3.125 to 100 μM. The control cells were treated with the vehicle DMSO (0.1%).

[4] = target: mushroom tyrosinase (Agaricus bisporus, UniProt C7FF04); assay: Kinetic analysis of the inhibition of tyrosinase (Lineweaver-Burk); assay type: biochemical; details: tyrosinase-catalyzed oxidation of L-DOPA
Chain of mushroom tyrosinase (C7FF04 1-392): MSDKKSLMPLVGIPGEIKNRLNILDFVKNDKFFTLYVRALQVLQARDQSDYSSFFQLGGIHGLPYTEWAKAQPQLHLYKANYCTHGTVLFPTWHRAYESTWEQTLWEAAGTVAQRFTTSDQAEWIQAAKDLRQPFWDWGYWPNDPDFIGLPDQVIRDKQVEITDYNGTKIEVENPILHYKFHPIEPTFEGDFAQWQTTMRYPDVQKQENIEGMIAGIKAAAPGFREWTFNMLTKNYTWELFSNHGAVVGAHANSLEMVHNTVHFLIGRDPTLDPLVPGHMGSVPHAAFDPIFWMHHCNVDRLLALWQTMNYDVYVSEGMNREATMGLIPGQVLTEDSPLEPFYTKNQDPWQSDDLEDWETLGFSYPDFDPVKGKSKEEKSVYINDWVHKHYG
Protocol: To understand the mechanism of mushroom tyrosinase inhibition by new compounds 3a–3h, enzyme inhibition kinetic studies were performed. The mechanism of tyrosinase inhibition was determined using Lineweaver–Burk plot, which is a useful graphical method for analysis of the Michaelis–Menten equations used to determine the inhibition constant […].
A series of experiments were performed to determine the inhibition kinetics of compounds by following the already reported method. The inhibitor concentrations for compounds were 50 and 100 µM. Substrate L-DOPA concentration was between 100 and 250 µM in all kinetic studies. Maximal initial velocity was determined from the initial linear portion of absorbance up to ten minutes after addition of enzyme. The inhibition type of the enzyme, Michaelis constant (KM) and maximal velocity (Vmax) were determined by Lineweaver–Burk plots of inverse of velocities (1/V) versus inverse of substrate concentration 1/[L-DOPA] mM^−1.

[5] = system: mouse skin melanoma (B16-F10) cell line; assay: MTT cell proliferation assay, B16-F10; assay type: cell-based; details: B16-F10, antiproliferative, MTT, 72 h, read-out: IC50 ± SD B16-F10
Text: as §1

With `CN1C2CCC1CC(=NNc1nc(-c3ccc(I)cc3)cs1)C2` [Compound 3a, 4-(4-Iodophenyl)-2-(2-(8-methyl-8-azabicyclo[3.2.1]octan-3-ylidene)hydrazinyl)thiazole] the IC50 ([1]; RPMI 8226, 24 h) was 14.6 µM, the IC50 ([1]; RPMI 8226, 48 h) was 7.91 µM and the “Apoptosis (early + late)” value ([1]; RPMI 8226, 2.5 µM, 24 hours) was 19.53 ± 2.64 % of cells ± SD. The Necrosis ([1]; RPMI 8226, 2.5 µM, 24 hours) was 3.62 ± 0.87 % of cells ± SD, the “Apoptosis (early + late)” value ([1]; RPMI 8226, 2.5 µM, 48 hours) was 20.93 ± 1.83 % of cells ± SD and the Necrosis ([1]; RPMI 8226, 2.5 µM, 48 hours) was 5.54 ± 0.44 % of cells ± SD. The “Apoptosis (early + late)” value ([1]; RPMI 8226, 5 µM, 24 hours) was 22.23 ± 6.01 % of cells ± SD, the Necrosis ([1]; RPMI 8226, 5 µM, 24 hours) was 6.35 ± 2.57 % of cells ± SD and the “Apoptosis (early + late)” value ([1]; RPMI 8226, 5 µM, 48 hours) was 31.71 ± 11.36 % of cells ± SD. The Necrosis ([1]; RPMI 8226, 5 µM, 48 hours) was 7.53 ± 2.61 % of cells ± SD, the “Apoptosis (early + late)” value ([1]; RPMI 8226, 10 µM, 24 hours) was 39.58 ± 9.33 % of cells ± SD and the Necrosis ([1]; RPMI 8226, 10 µM, 24 hours) was 9.94 ± 2.73 % of cells ± SD. For the same compound, the “Apoptosis (early + late)” value ([1]; RPMI 8226, 10 µM, 48 hours) was 58.25 ± 21.57 % of cells ± SD, the Necrosis ([1]; RPMI 8226, 10 µM, 48 hours) was 11.08 ± 5.38 % of cells ± SD and the “Apoptosis (early + late)” value ([1]; RPMI 8226, 20 µM, 24 hours) was 60.41 ± 0.99 % of cells ± SD. For the same compound, the Necrosis ([1]; RPMI 8226, 20 µM, 24 hours) was 18.5 ± 2.38 % of cells ± SD, the “Apoptosis (early + late)” value ([1]; RPMI 8226, 20 µM, 48 hours) was 76.93 ± 14.34 % of cells ± SD and the Necrosis ([1]; RPMI 8226, 20 µM, 48 hours) was 20.18 ± 11.99 % of cells ± SD. For the same compound, the IC50 [2] was 2.26 ± 0.38 µM, the IC50 [3] was 13.8 ± 1.9 µM and the “Inhibitory Mechanism” value [4] was “mixed”. The IC50 [5] was 1.51 ± 0.14 µM.
